Where “and” joins values, the source holds several entries; their conditions need not be identical. Equal values may be shown once. Read-outs that look alike come from different tables or passages of the source.
Tests used:
[1] = Bidirectional permeability across Caco-2 cell monolayers; details: human
Experimental: (§1) Bidirectional permeability was assessed across Caco-2 cell monolayers as described previously. Briefly, permeability experiments were performed using either aqueous transport buffer (pH 7.4 Hanks balanced salt solution containing 20 mM HEPES) or human plasma (Australian Red Cross Blood Service) in both the apical and basolateral chambers. […] The final DMSO concentration in the donor solution was 0.1% v/v.
(§2) Samples from the donor chamber were taken at the start and end of the experiment. […] Donor and acceptor samples were stored frozen at − 80 °C until analysis by LC–MS (Additional file 1: Table S2) with sample preparation as described previously. The mass balance and apparent permeability coefficient (Papp) were calculated as previously described.
(§3) Where human plasma was used as the transport medium, Papp values were calculated as shown above, with correction for the fraction unbound (fu) in the donor solution Cdonorinitial×fu with fu determined at a similar concentration to that used in the transport experiment. The apparent flux of lucifer yellow was based on an endpoint measurement assuming no lag time. The efflux ratio was calculated as the ratio of the mean B–A to A–B Papp values.

[2] = test system: Caco-2 cell monolayers; assay: as above; details: matrix: pH 7.4 buffer
Experimental: as §1, §2, §3

[3] = test system: Caco-2 cell monolayers; details: cited from earlier work; for Literature ER: Caco-2, ref [33], [35] of Additional file 1; for Literature Papp: Caco-2 A-B, ref [33]–[35] of Additional file 1; for A–B Papp / B–A Papp: matrix: human plasma, corrected for fu
[4] = Binding in DMEM with 10% FCS via ultracentrifugation; type: in vitro ADME, calf; details: bovine, DMEM with 10% FCS, pH 7.4
Experimental: Dulbecco’s Modified Eagle’s Medium (DMEM) containing GlutaMAX-I was purchased from Invitrogen (Thermo Fisher Scientific) and stored at 4 °C. Medium was prepared by adding heat inactivated foetal calf serum (FCS, final 10% v/v), penicillin (final 100 U/mL), streptomycin (final 100 µg/mL) D-glucose (final 4.0 mg/mL) and sodium pyruvate (final 0.1 mg/mL).
An ultracentrifugation method adapted from a previous publication was initially used to assess plasma protein binding and binding in the other media. […] Additional ultracentrifuge tubes containing spiked matrix were maintained at 37 °C, 5% or 10% CO2 or normal atmosphere conditions, with aliquots being taken within 0.5 h of the start and at the end of ultracentrifugation to serve as controls for the assessment of stability and to obtain a measure of the total concentration (Ctotal). Following ultracentrifugation, the pH was checked and an aliquot of protein-free supernate was taken from each ultracentrifuge tube for determination of the unbound concentration (Cunbound).
Total matrix and protein free samples were analysed using a matrix matching approach whereby each sample was mixed in a 1:1 ratio with the opposite blank medium (i.e. blank total matrix or blank protein free buffer). For example, plasma samples were mixed with blank pH 7.4 buffer whereas plasma supernatant samples were mixed with blank plasma. Each of the sample sets were then assayed against a common calibration curve prepared in a 1:1 mixture of total matrix and protein free pH 7.4 buffer. […] The standard deviation for fu was calculated using the propagation of errors approach as described previously. The potential for compound degradation was assessed by comparing the average value for Ctotal at the start and end of the experiment.

[5] = test system: human plasma; assay: Plasma protein binding via rapid equilibrium dialysis (RED), 10% plasma; type: in vitro ADME; details: RED, 10% plasma corrected for dilution, 6 h dialysis
Summary of the method: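 Fraction unbound in undiluted plasma was derived from mean total and unbound levels measured in 10% plasma. That plasma was pooled from 3–4 donors, diluted in pH 7.4 phosphate/0.04 M NaCl buffer, spiked at ~1000–3000 ng/mL and equilibrium-dialysed at 37 °C in pre-saturated RED devices, n = 3–4.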

[6] = Blood to plasma partitioning; type: in vitro ADME, human; details: 37 °C; for blood plasma ratio at 1000 ng/mL: human, whole blood, pH 7.4, human whole blood, read-out: B/P (whole blood to plasma partitioning ratio)
Experimental: Human whole blood was collected and supplied by the Volunteer Blood Donor Registry (Clinical Translation Centre, Walter & Eliza Hall Institute of Medical Research, Parkville, Australia) and used on the day of collection. The haematocrit (Hct) was determined by centrifugation (13,000×g for 3 min using Clemets® Microhaematocrit centrifuge and Safecap® Plain Self-sealing Mylar wrapped capillary tubes) to ensure it was between 0.40 and 0.48. An aliquot was centrifuged (Heraeus, Multifuge 3 S-R; 4500×g) for 10 min to obtain plasma required for matrix matching purposes as described below.
Two aliquots of the spiked whole blood were transferred to fresh microcentrifuge tubes and maintained at 37 °C/5% CO2 in a humidified incubator. The pH was confirmed to be 7.4 ± 0.1 at the start and end of the incubation. At each time point (30 min and 4 h), one whole blood tube was removed from the incubator and mixed by gentle inversion, after which four replicate blood samples were taken and matrix matched with an equal volume of blank plasma. The remainder of the blood sample was centrifuged (Eppendorf, Mini Spin plus; 6700×g) for 2 min for the collection of 4 replicate plasma samples which were similarly matrix matched with an equal volume of blank whole blood. The 1:1 mixtures of blood/plasma were mixed, snap frozen in dry ice and stored at − 80 °C until analysis by LC–MS (Additional file 1: Table S2) against calibration standards prepared in the same mixed matrix. Any further distribution of compound into RBCs at this stage was irrelevant as the cells were lysed during the sample preparation and the total concentration in the mixed matrix was measured for both the calibration standards and samples.
The apparent whole blood-to-plasma partitioning ratio (B/P) was calculated as the ratio of the average concentration in the blood sample to that in the plasma fraction of the same whole blood sample. A standard deviation (SD) for each B/P value was calculated using the propagation of errors approach as described previously.

[7] = Caco-2, pH 7.4, A–B Papp, matrix: pH 7.4 buffer
[8] = Caco-2, A–B Papp, matrix: human plasma, corrected for fu

For CO[C@H]1O[C@@H]2O[C@@]3(C)CC[C@H]4[C@H](C)CC[C@@H]([C@H]1C)[C@@]24OO3 [Artemether], the Papp B→A ([1]; Caco-2, pH 7.4) was 42 ± 5.6 ×10⁻⁶ cm/s, the Papp A→B [1, 7] was 39.1 ×10⁻⁶ cm/s and the “A–B Papp” value [2] was 46.3 10^−6 cm/s.
C[C@H]1[C@H](N2CCS(=O)(=O)CC2)O[C@@H]2O[C@@]3(C)CC[C@H]4[C@H](C)CC[C@@H]1[C@@]24OO3 [Artemisone] showed a Papp B→A ([1]; Caco-2, pH 7.4) of 47 ± 1.7 ×10⁻⁶ cm/s, an efflux ratio ([1]; Caco-2, pH 7.4) of 0.8 and a Papp A→B [1, 7] of 58.8 ×10⁻⁶ cm/s. The “A–B Papp” value [2] was 64.5 10^−6 cm/s, the “Literature ER” value [3] was 0.8 and the “Literature Papp” value [3] was 59.6 ± 4.2 10-6 cm/sec.
In the case of C[C@H]1[C@H](OC(=O)CCC(=O)O)O[C@@H]2O[C@@]3(C)CC[C@H]4[C@H](C)CC[C@@H]1[C@@]24OO3 [Artesunate], the Papp B→A ([1]; Caco-2, pH 7.4) is reported as 2.8 ± 0.48 ×10⁻⁶ cm/s, the Papp A→B [1, 7] is reported as 3.4 ×10⁻⁶ cm/s and the “A–B Papp” value [2] is reported as 2.9 10^−6 cm/s. The fraction unbound at […], 1000 ng/mL [4] was 0.72 ± 0.026 and the “Literature ER” value [3] was 1.2.
In the case of O=C1C(O)=C([C@H]2CC[C@H](c3ccc(Cl)cc3)CC2)C(=O)c2ccccc21 [Atovaquone], the “A–B Papp” value [3] is listed as > 300 10^−6 cm/s and the “B–A Papp” value [3] is listed as > 300 10^−6 cm/s.
With CC[C@H]1OC(=O)[C@H](C)[C@@H](O[C@H]2C[C@@](C)(OC)[C@@H](O)[C@H](C)O2)[C@H](C)[C@@H](O[C@@H]2O[C@H](C)C[C@H](N(C)C)[C@H]2O)[C@](C)(O)C[C@@H](C)CN(C)[C@H](C)[C@@H](O)[C@]1(C)O [Azithromycin] the Papp B→A ([1]; Caco-2, pH 7.4) was 13 ± 3.9 ×10⁻⁶ cm/s, the “A–B Papp” value [2] was 0.37 10^−6 cm/s and 0.38 10^−6 cm/s and the “A–B Papp” value ([2]; listed as azithromycin) was < 5 10^−6 cm/s. The “Fraction unbound, human plasma” value [5] was 0.35.
CC(C)NC(=N)NC(=N)Nc1ccc(Cl)c(Cl)c1 [Chlorproguanil] gave a Papp B→A ([1]; Caco-2) of 61 ± 7.4 ×10⁻⁶ cm/s, an efflux ratio ([1]; Caco-2) of 3.2 and a Papp A→B [1, 8] of 19 ± 3 ×10⁻⁶ cm/s. For the same compound, the “B/P (whole blood to plasma partitioning ratio)” value ([6]; human whole blood) was 3.3 ± 0.38 and the blood plasma ratio at 1000 ng/mL [6] was > 3.
In the case of CC1(C)N=C(N)N=C(N)N1c1ccc(Cl)cc1 [Cycloguanil], the Papp B→A ([1]; Caco-2, pH 7.4) is reported as 0.77 ± 0.05 ×10⁻⁶ cm/s, the “A–B Papp” value [2] is reported as 1.2 ± 0.070 10^−6 cm/s and the “A–B Papp” value ([2]; listed as cycloguanil) is reported as < 5 10^−6 cm/s. The fraction unbound at […], 1000 ng/mL [4] was 0.94 ± 0.064.
For Cc1cc(Nc2ccc(S(F)(F)(F)(F)F)cc2)n2nc(C(C)(F)F)nc2n1 [DSM265], the Papp B→A ([1]; Caco-2, pH 7.4) was 49 ± 5.1 ×10⁻⁶ cm/s, the Papp A→B [1, 7] was 52.4 ×10⁻⁶ cm/s and the “A–B Papp” value [2] was 69.7 10^−6 cm/s. The fraction unbound at […], 1000 ng/mL [4] was 0.366 ± 0.041.
For CCNCc1cc(Nc2ccnc3cc(Cl)ccc23)ccc1O [Desethylamodiaquine], the blood plasma ratio at 1000 ng/mL [6] was 3.26 ± 0.35.
In the case of C[C@H]1[C@@H](O)O[C@@H]2O[C@@]3(C)CC[C@H]4[C@H](C)CC[C@@H]1[C@@]24OO3 [Dihydroartemisinin], the Papp B→A ([1]; Caco-2, pH 7.4) is given as 49 ± 1.2 ×10⁻⁶ cm/s, the Papp A→B [1, 7] is given as 50 ± 2.3 ×10⁻⁶ cm/s and the “Literature Papp” value [3] is given as 38.6 ± 5.0 10-6 cm/sec.
In the case of C[C@H]1c2cccc(O)c2C(=O)C2=C(O)[C@]3(O)C(=O)C(C(N)=O)=C(O)[C@@H](N(C)C)[C@@H]3[C@@H](O)[C@@H]21 [Doxycyclin], the Papp B→A ([1]; Caco-2, pH 7.4) is reported as 4.2 ± 0.29 ×10⁻⁶ cm/s, the Papp A→B [1, 7] is reported as < 5 ×10⁻⁶ cm/s and the “A–B Papp” value [2] is reported as 3.4 ± 0.23 10^−6 cm/s. It also gave a fraction unbound at […], 1000 ng/mL [4] of 0.44 ± 0.07.
For CCCCN(CCCC)CCC(O)c1cc2c(Cl)cc(Cl)cc2c2cc(C(F)(F)F)ccc12 (stereo not shown) [Halofantrine], the “A–B Papp” value [3] is listed as > 300 10^−6 cm/s and the “B–A Papp” value [3] is listed as > 300 10^−6 cm/s.
With C[C@H]1Cc2c([nH]c3cc(Cl)c(F)cc23)[C@@]2(N1)C(=O)Nc1ccc(Cl)cc12 [KAE609] the Papp B→A ([1]; Caco-2) was > 300 ×10⁻⁶ cm/s, the Papp A→B [1, 8] was > 300 ×10⁻⁶ cm/s and the blood plasma ratio at 1000 ng/mL [6] was 0.66 ± 0.04.
